Experimental findings from paper PMC7878925, “Continuous stimulation of dual-function peptide PGLP-1-VP inhibits the morbidity and mortality of NOD mice through anti-inflammation and immunoregulation” (Scientific Reports, 2021) are described below.

Where no end group is shown, it is not given here.

One series concerns DPP-IV. As to the kind of experiment: in vitro. The note with it: human, isolated enzyme dpp iv. How it is done: Stability test for DPP-IV in vitro was performed as previously described.
For the next series, the target named is human GLP-1R (Homo sapiens, UniProt P43220). As to the kind of experiment: cell-based. How it is done:
Human embryonic kidney (HEK-293) cells were obtained from ATCC and cultured in growing media (DMEM: 25 mM glucose, 10% FBS, 100 µg/mL penicillin and 100 µg/mL streptomycin).

The subject of another series is NOD mice. The conditions noted are these: 210 nmol/kg s.c. twice weekly for 24 weeks. How it is done: Female 4-week-old NOD mice were obtained from Beijing HFK Bioscience Co. Ltd. (Beijing, China). NOD mice were randomly divided into 4 groups: vehicle, PGLP-1, VP and PGLP-1-VP, and each group was subcutaneously injected twice weekly with placebo [Lipofundin[32] (B. Braun Melsungen AG, Melsungen, Germany)] or 210 nmol/kg of peptides for 24 weeks. Body weight and blood glucose were measured once every 2 weeks until the end of the observation period. NOD mice were considered diabetic when blood glucose concentrations exceeded 200 mg/dL for 2 consecutive measurements. The onset time and death time of diabetic mice were calculated. Indexes of dead mice were shown as the last blood glucose or weight data. Blood samples were collected retro-orbital and centrifuged, and then serum was collected. Serum C-peptide levels and transforming growth factor-β1 (TGF-β1) were measured by enzyme-linked immunosorbent kits (Jiancheng Bio-Engineering Institute Co., Ltd. Nanjing, China).

Sequence of human GLP-1R (P43220 24-463): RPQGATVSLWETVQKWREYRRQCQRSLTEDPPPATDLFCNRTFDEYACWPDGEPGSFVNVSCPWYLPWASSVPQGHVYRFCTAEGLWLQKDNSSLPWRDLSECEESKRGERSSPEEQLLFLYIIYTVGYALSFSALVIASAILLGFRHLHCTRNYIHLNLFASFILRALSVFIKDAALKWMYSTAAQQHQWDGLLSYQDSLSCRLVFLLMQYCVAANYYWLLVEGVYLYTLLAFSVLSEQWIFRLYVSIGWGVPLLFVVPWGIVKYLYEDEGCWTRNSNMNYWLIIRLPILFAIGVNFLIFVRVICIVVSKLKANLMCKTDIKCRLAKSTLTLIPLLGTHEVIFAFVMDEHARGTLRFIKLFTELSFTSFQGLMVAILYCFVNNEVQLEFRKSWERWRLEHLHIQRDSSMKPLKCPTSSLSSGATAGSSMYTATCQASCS

One may read the fraction remaining as the share of the starting amount still present when the sample was taken. On to `CC[C@H](C)[C@H](NC(=O)[C@H](Cc1ccccc1)NC(=O)[C@H](CCC(=O)O)NC(=O)[C@H](CCCCN)NC(=O)[C@H](C)NC(=O)[C@H](C)NC(=O)[C@H](CCC(N)=O)NC(=O)CNC(=O)[C@H](CCC(=O)O)NC(=O)[C@H](CC(C)C)NC(=O)[C@H](Cc1ccc(O)cc1)NC(=O)[C@H](CO)NC(=O)[C@H](CO)NC(=O)[C@@H](NC(=O)[C@H](CC(=O)O)NC(=O)[C@H](CO)NC(=O)[C@@H](NC(=O)[C@H](Cc1ccccc1)NC(=O)[C@@H](NC(=O)CNC(=O)[C@H](CCC(=O)O)NC(=O)[C@H](C)NC(=O)[C@@H](N)Cc1c[nH]cn1)[C@@H](C)O)[C@@H](C)O)C(C)C)C(=O)N[C@@H](C)C(=O)N[C@@H](Cc1c[nH]c2ccccc12)C(=O)N[C@@H](CC(C)C)C(=O)N[C@H](C(=O)N[C@@H](CCCCN)C(=O)NCC(=O)N[C@@H](CCCN=C(N)N)C(=O)NCC(=O)O)C(C)C` [GLP-1, Glucagon-like peptide-1], for which, in the series with DPP-IV, the amount remaining at 10 h, 10 µM was found to be 6.3%.

By EC50 is commonly meant the concentration needed to bring the measured effect to its halfway point. High values mean a less potent agent, low ones a more potent agent. On to “HGEGTFTSDVSSYLEGQAAKEFIAWLVKGRGPGVLGGGCRCIPALDSLTPANED (cysteines drawn unpaired) [PGLP-1-VP]”, for which, on human GLP-1R, a half-maximal effect (EC50) was put at 0.139 ± 0.037 µM. For the same compound, the “body weights compared to controls” value with NOD mice is given as “not affected”.
